Results taken from US20030232986A1, “Inhibitors of caspases” (Vertex Pharmaceuticals Incorporated, priority 1998, published 2003).
*1 amine or outer side, *2 acyl side, *3 side chain or, on linkers, in order; H or OH if unused. Where a SMILES comes first, the peptide text is derived from it. [ ]: non-standard residue; d: D form. The star is where a group is joined. 4Abz = Nc1ccc(C(=O)O)cc1; CO = O=C([*:1])[*:2]; NHPh = c1ccc(N*)cc1

Biological target: T1, Caspase-1 (Homo sapiens, UniProt P29466)
T1 sequence (P29466 120-297 limits assumed): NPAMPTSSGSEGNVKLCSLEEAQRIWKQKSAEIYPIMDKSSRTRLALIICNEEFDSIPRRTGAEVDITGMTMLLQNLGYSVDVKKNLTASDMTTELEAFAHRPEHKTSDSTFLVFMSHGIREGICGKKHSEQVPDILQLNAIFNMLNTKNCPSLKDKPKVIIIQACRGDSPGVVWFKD
T1 sequence (P29466 317-404 limits assumed): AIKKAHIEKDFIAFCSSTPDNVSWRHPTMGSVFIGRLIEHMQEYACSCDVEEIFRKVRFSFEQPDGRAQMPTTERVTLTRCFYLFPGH
Test: Caspase-1 enzyme inhibition (Ki)
Assay type: biochemical
Settings: not given
Procedure: Ki values for test compounds with the various caspases were obtained by the method of Margolin et al. (J. Biol. Chem., 272 pp. 7223-7228 (1997)). Assays were performed in 10 mM Tris (Sigma Corp, St Louis Mo.) pH 7.5, 1 mM Dithiothreitol (DTT, Research Organic INC, Cleveland, Ohio) and 0.1% CHAPS (Pierce, Rockford Ill.) at 37° C. For caspase-3, a solution of 8% glycerol was added to the assay buffer to improve enzyme stability. A 65 μL aliquot of the assay buffer and 5 μL aliquot of the appropriate dilutions of inhibitor in DMSO where pipetted into a 96 well plate, treated with 10 μL of caspase, then diluted in assay buffer (0.5-40 nM active protein by active site titration). A control containing DMSO but no compound was included for each determination. The plates were then incubated for 15 minutes at 37° C., before addition of the appropriate substrate (20 μL, final concentration 1-4×KM, final assay volume 100 μL) to initiate the reaction. Reaction rates were measured at 37° C. either by following the time dependant increase in absorbance at 405 nm (for the pNA substrates) or in fluorescence (Ex 390, Em 460) (for the AMC substrates). The rates obtained were plotted against inhibitor concentration and the data fit to the Morrison tight-binding equation for competitive inhibitors (Morrison, J. F., Biochem. Biophys. Acta, 185 pp. 269-286 (1969)). The substrates used for the individual assays were as follows:
Caspase-1 Suc-YVAD-pNA (Bachem, King of Prussia, Pa.) (final concentration in the assay 80 μM),

SMILES | Ki
Cc1onc(-c2c(F)cccc2Cl)c1C(=O)N[C@H](C(=O)N1CCC[C@H]1C(=O)N[C@H](C=O)CC(=O)O)C(C)C [Example 5ae] | 0.01 to 1 µM
CC(=O)N[C@H](Cc1c[nH]c2ccccc12)C(=O)N[C@H](C(=O)N1CCC[C@H]1C(=O)N[C@H](C=O)CC(=O)O)C(C)C [Example 5ah] (Ac-[dW]VPD-aldehyde) | 0.01 to 1 µM
CC(C)[C@H](NC(=O)C(c1ccc(Cl)cc1)c1ccc(Cl)cc1)C(=O)N1CCC[C@H]1C(=O)N[C@H](C=O)CC(=O)O [Example 5p] | 0.01 to 1 µM
CC(C)[C@H](NC(=O)C(c1ccccc1)c1ccccc1)C(=O)N1CCC[C@H]1C(=O)N[C@H](C=O)CC(=O)O [Example 5q] | 0.01 to 1 µM

Results, then the molecule that gave them:

Ki | SMILES
0.01 to 1 µM | COc1ccc(CCC(=O)N[C@H](C(=O)N2CCC[C@H]2C(=O)N[C@H](C=O)CC(=O)O)C(C)C)cc1OC [Example 5o]
> 1 µM | CC(C)[C@H](NC(=O)C1(c2ccccc2)CCCC1)C(=O)N1CCC[C@H]1C(=O)N[C@H](C=O)CC(=O)O [Example 5t]

Same assay, conditions: substrate Suc-YVAD-pNA 80 μM, 37° C., pH 7.5

SMILES | Ki
Cc1onc(-c2c(F)cccc2Cl)c1C(=O)N[C@H](C(=O)N1CCC[C@H]1C(=O)N[C@H](C=O)CC(=O)O)C(C)C [Example 5ae] | 0.01 to 1 µM
CC(=O)N[C@H](Cc1c[nH]c2ccccc12)C(=O)N[C@H](C(=O)N1CCC[C@H]1C(=O)N[C@H](C=O)CC(=O)O)C(C)C [Example 5ah] (Ac-[dW]VPD-aldehyde) | 0.01 to 1 µM
CC(C)[C@H](NC(=O)Cc1ccc(Cl)c(Cl)c1)C(=O)N1CCC[C@H]1C(=O)N[C@H](C=O)CC(=O)O [Example 5an] | 0.01 to 1 µM
Cc1ccn2c(=O)c(C(=O)N[C@H](C(=O)N3CCC[C@H]3C(=O)N[C@H](C=O)CC(=O)O)C(C)C)cnc2c1 [Example 5ap] | 0.01 to 1 µM
CC(C)[C@H](NC(=O)C(c1ccc(Cl)cc1)c1ccc(Cl)cc1)C(=O)N1CCC[C@H]1C(=O)N[C@H](C=O)CC(=O)O [Example 5p] | 0.01 to 1 µM
CC(C)[C@H](NC(=O)C(c1ccccc1)c1ccccc1)C(=O)N1CCC[C@H]1C(=O)N[C@H](C=O)CC(=O)O [Example 5q] | 0.01 to 1 µM
C[C@H](NC(=O)Nc1ccccc1)C(=O)N1CCC[C@H]1C(=O)N[C@H](C=O)CC(=O)O [Example 7af] ({NHPh-CO}-Ala-Pro-Asp-aldehyde) | 0.01 to 1 µM
C[C@H](NC(=O)Oc1ccccc1)C(=O)N1CCC[C@H]1C(=O)N[C@H](C=O)CC(=O)O [Example 7ag] | 0.01 to 1 µM
C[C@H](NC(=O)c1ccc(F)c(F)c1)C(=O)N1CCC[C@H]1C(=O)N[C@H](C=O)CC(=O)O [Example 7al] | 0.01 to 1 µM
C[C@H](NC(=O)c1ccc(N)cc1)C(=O)N1CCC[C@H]1C(=O)N[C@H](C=O)CC(=O)O [Example 7aq] (H-[4Abz]APD-aldehyde) | 0.01 to 1 µM
Cc1nc(C)c(C(=O)N[C@@H](C)C(=O)N2CCC[C@H]2C(=O)N[C@H](C=O)CC(=O)O)s1 [Example 7r] | 0.01 to 1 µM
C[C@H](NC(=O)C(=O)c1ccccc1)C(=O)N1CC(F)(F)C[C@H]1C(=O)N[C@H](C=O)CC(=O)O [Example 27c] | 0.01 to 1 µM
Cc1cc(C(=O)N[C@@H]2CCN([C@@H](CC(C)C)C(=O)N[C@H](C=O)CC(=O)O)C2=O)cc(C)c1O [Example 32b] | > 1 µM
CC(C)C[C@@H](C(=O)N[C@H](C=O)CC(=O)O)N1CC[C@@H](NC(=O)c2ccc3[nH]nnc3c2)C1=O [Example 32c] | > 1 µM
CN(NC(=O)N1CCCC1C(=O)NC(C=O)CC(=O)O)C(=O)c1nccc2ccccc12 (stereo not drawn) [Example 34, 3-({1-[N-(isoquinoline-1-carbonyl)-N-methyl-hydrazinocarbonyl]-pyrrolidine-2-carbonyl}-amino)-4-oxo-butyric acid] | > 1 µM
C[C@H](NC(=O)c1ccc(N)c(Cl)c1)C(=O)N1CCC[C@@H]1C(=O)N[C@H](C=O)CC(=O)O [Example 122o, 3-({1-[2-(4-Amino-3-chloro-benzoylamino)-propionyl]-pyrrolidine-2-carbonyl}-amino)-4-oxo-butyric acid] | > 1 µM
CCC(=O)Nc1ccc(C(=O)N[C@@H](C)C(=O)N2CCC[C@H]2C(=O)N[C@H](C=O)CC(=O)O)cc1Cl [Example 122t, 3-({1-[2-(3-Chloro-4-propionylamino-benzoylamino)-propionyl]-pyrrolidine-2-carbonyl}-amino)-4-oxo-butyric acid] | 0.01 to 1 µM
C[C@H](NC(=O)c1ccc(NC(=O)Cc2ccccc2)c(Cl)c1)C(=O)N1CCC[C@H]1C(=O)N[C@H](C=O)CC(=O)O [Example 122u, 3-({1-[2-(3-Chloro-4-phenylacetylamino-benzoylamino)-propionyl]-pyrrolidine-2-carbonyl}-amino)-4-oxo-butyric acid] | < 0.01 µM

The remaining lines, values ahead:

Ki | SMILES
> 1 µM | COc1ccc(C(=O)NC(C(=O)N2N=C(C(C)(C)C)SC2C(=O)NC(C=O)CC(=O)O)C(C)C)cc1 (single isomer, unassigned) [Example 46a, 3-({5-tert-butyl-3-[2-(4-methoxy-benzoylamino)-3-methyl-butyryl]-2,3-dihydro-[1,3,4]thiadiazole-2-carbonyl)-amino)-4-oxo-butyric acid]
0.01 to 1 µM | CC(C)[C@H](NC(=O)c1c(-c2ccccc2)nnc2ccccc12)C(=O)N1CCC[C@H]1C(=O)N[C@H](C=O)CC(=O)O [Example 5bc]
0.01 to 1 µM | COc1ccc(CCC(=O)N[C@H](C(=O)N2CCC[C@H]2C(=O)N[C@H](C=O)CC(=O)O)C(C)C)cc1OC [Example 5o]
> 1 µM | CC(C)[C@H](NC(=O)C1(c2ccccc2)CCCC1)C(=O)N1CCC[C@H]1C(=O)N[C@H](C=O)CC(=O)O [Example 5t]
0.01 to 1 µM | C[C@H](NS(=O)(=O)c1ccccc1)C(=O)N1CCC[C@H]1C(=O)N[C@H](C=O)CC(=O)O [Example 7ae]
0.01 to 1 µM | C[C@H](NC(=O)c1ccc(OC(F)(F)F)cc1)C(=O)N1CCC[C@H]1C(=O)N[C@H](C=O)CC(=O)O [Example 7i]
> 1 µM | CC(=O)N(C)c1ccc(C(=O)N[C@@H](C)C(=O)N2CCC[C@H]2C(=O)N[C@H](C=O)CC(=O)O)cc1 [Example 7j]
0.01 to 1 µM | CC(C)[C@H](NC(=O)c1ccc(N)c(Cl)c1)C(=O)N1CCN(C)C[C@H]1C(=O)N[C@H](C=O)CC(=O)O [Example 17a]
0.01 to 1 µM | Cc1cc(C(=O)N[C@@H](C)C(=O)N2CC(F)(F)C[C@H]2C(=O)N[C@H](C=O)CC(=O)O)cc(C)c1O [Example 27j]
0.01 to 1 µM | CC(=O)Nc1c(Cl)cc(C(=O)N[C@@H](C)C(=O)N2CC(F)(F)C[C@H]2C(=O)N[C@H](C=O)CC(=O)O)cc1Cl [Example 27k]
< 0.01 µM | CC(C)[C@H](NC(=O)c1cccc2ccccc12)C(=O)N[C@@H](C)C(=O)N[C@H](C=O)CC(=O)O [Example 29f]
> 1 µM | CC(C)C[C@@H](C(=O)N[C@H](C=O)CC(=O)O)N1CC[C@@H](NC(=O)c2nccc3ccccc23)C1=O [Example 32a]
0.01 to 1 µM | CC(C)C[C@@H](C(=O)N[C@H](C=O)CC(=O)O)N1CC[C@@H](NC(=O)c2c(Cl)cccc2Cl)C1=O [Example 32e]
> 1 µM | CC(Nc1ccccc1)C(=O)N1CCCC1C(=O)NC(C=O)CC(=O)O (stereo not drawn) [Example 121, 4-Oxo-3-{[1-(2-phenylamino-propionyl)-pyrrolidine-2-carbonyl]-amino}-butyric acid]
0.01 to 1 µM | C[C@H](NC(=O)c1cc(F)c(N(C)C)c(F)c1)C(=O)N1CCC[C@H]1C(=O)N[C@H](C=O)CC(=O)O [Example 122n, 3-({1-[2-(4-Dimethylamino-3,5-difluoro-benzoylamino)-propionyl]-pyrrolidine-2-carbonyl}-amino)-4-oxo-butyric acid]
0.01 to 1 µM | CC(C)CC(=O)Nc1ccc(C(=O)N[C@@H](C)C(=O)N2CCC[C@H]2C(=O)N[C@H](C=O)CC(=O)O)cc1Cl [Example 122v, 3-[(1-{2-[3-Chloro-4-(3-methyl-butyrylamino)-benzoylamino]-propionyl}-pyrrolidine-2-carbonyl}-amino]-4-oxo-butyric acid]
0.01 to 1 µM | COc1c(C(=O)NC(C)C(=O)N2CC(F)(F)CC2C(=O)NC(C=O)CC(=O)O)ccc(NC(C)=O)c1Cl (stereo not drawn) [Example 123c, 3-({1-[2-(4-Acetylamino-3-chloro-2-methoxy-benzoylamino)-propionyl]-4,4-difluoro-pyrrolidine-2-carbonyl)-amino)-4-oxo-butyric acid]
> 1 µM | Nc1ccc(C(=O)NCC(=O)N2CCC[C@H]2C(=O)N[C@H](C=O)CC(=O)O)cc1Cl [Example G1, 3-({1-[(4-Amino-3-chloro-benzoylamino)-acetyl]-pyrrolidine-2-carbonyl}-amino)-4-oxo-butyric acid]
